Measured values from patent US20240246968A1, “SMALL MOLECULE INHIBITORS OF KRAS G12C MUTANT” (Merck Sharp & Dohme LLC, priority 2021, published 2024).

Experiments:
[1] = target: T1, interaction between recombinant K-Ras4B G12C mutant protein and cRAF RAS-binding domain (cRAF-RBD) (Homo sapiens, UniProt P01116, G12C); experiment: Inhibitory activity on interaction between KRAS G12C and cRAF (Alpha technology); type: biochemical; details: GMPPNP-bound KRAS G12C incubated with compound at 25° C. for 1 hour, then cRAF-RBD; Alpha signal
T1 construct: made in house; host or cells: E. coli
Procedure, shortened: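 Alpha readout of cRAF-RBD (aa 50-132) binding to KRAS G12C (aa 1-169) after 1.5 h RT, following 1 h, 25° C compound preincubation with GMPPNP-bound protein (pH 7.5 Tris, 1 mM MgCl2, TCEP, Tween 20). IC50 fitted from titrations, with GDP-bound KRAS as 100% and DMSO as 0% inhibition.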

[2] = target: Gppcp-bound recombinant K-Ras4B G12C mutant protein (amino acids 1-169, C51S/C80L/C118S) (Homo sapiens, UniProt P01116, C118S/C51S/C80L/G12C); experiment: KRASG12C binding assay (LC-MS, compound binding rate); details: test compound final concentration 0.5 μM, 25° C., 1 hour
Procedure, shortened: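 Covalent adduct formation measured by deconvoluted intact-mass LC-MS after 1 h at 25 °C with compound at 0.5 μM final and 50 nM Gppcp-loaded KRAS G12C (residues 1-169, C51S/C80L/C118S). Buffer: TBS, 0.1 mM TCEP, 0.25 mM MgCl2, 50 μM Gppcp. Binding % = one-molecule adduct/(unbound + all adducts), binned A ≥80, B 60–80, C 40–60, D 20–40, E <20.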

MIA PaCa-2 cells = experiment: Growth inhibition activity on KRAS-G12C mutant cell line (MIA PaCa-2), CellTiter-Glo 3D; type: cell-based, human; details: Homo sapiens, MIA PaCa-2, 72 h, MIA PaCa-2, 3-day culture with compound
Procedure, shortened: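 Luminescence readout (CellTiter-Glo 3D) after 3 days of compound treatment at 37 °C, 5% CO2, 0.2% final DMSO, gave % growth inhibition versus no-compound wells, from which IC50 (nM) was derived; cells had been plated in 10% FBS RPMI1640 one day before dosing.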

Row | IC50 [1] | IC50 (MIA PaCa-2 cells) | SMILES | binding rate [2]
1 | 75 nM | 140 nM | COc1nc2c(cc1-c1cccn3c(C(=O)c4cc(F)c(NC(=O)/C=C/CN[C@H]5CC[C@H](OC)CC5)c(F)c4)ccc13)nc(C)n2C [Example 33, (E)-N-(2,6-difluoro-4-(8-(5-methoxy-2,3-dimethyl-3H-imidazo[4,5-b]pyridin-6-yl)indolizine-3-carbonyl)phenyl)-4-(((1r,4r)-4-methoxycyclohexyl)amino)but-2-enamide] | A (A binding rate of 80% or more is rated “A”)
2 | 87 nM | 240 nM | CO[C@H]1CC[C@H](NC/C=C/C(=O)Nc2c(F)cc(C(=O)c3ccc4c(-c5c(C#N)cc6c(nc(C)n6C)c5Cl)cccn34)cc2F)CC1 [Example 37, (E)-N-(4-(8-(4-chloro-6-cyano-1,2-dimethyl-1H-benzo[d]imidazol-5-yl)indolizine-3-carbonyl)-2,6-difluorophenyl)-4-(((1r,4r)-4-methoxycyclohexyl)amino)but-2-enamide] | A (A binding rate of 80% or more is rated “A”)
3 | 77 nM | 78 nM | CO[C@H]1CC[C@H](NC/C=C/C(=O)Nc2c(F)cc(C(=O)c3ccc4c(-c5c(C6CC6)cc6c(nc(C)n6C)c5Cl)cccn34)cc2F)CC1 [Example 38] | A (A binding rate of 80% or more is rated “A”)
4 | 85 nM | 610 nM | COc1cc(-c2cncn2C)cc(Cl)c1-c1cccn2c(C(=O)c3cc(F)c(NC(=O)/C=C/CN[C@H]4CC[C@H](OC)CC4)c(F)c3)ccc12 [Example 42, (E)-N-(4-(8-(2-chloro-6-methoxy-4-(1-methyl-1H-imidazol-5-yl)phenyl)indolizine-3-carbonyl)-2,6-difluorophenyl)-4-(((1r,4r)-4-methoxycyclohexyl)amino)but-2-enamide] | A (A binding rate of 80% or more is rated “A”)
5 | 88 nM | 160 nM | C#Cc1cc2c(nc(C)n2C)c(Cl)c1-c1cccn2c(C(=O)c3cc(F)c(NC(=O)/C=C/CN[C@H]4CC[C@H](OC)CC4)c(F)c3)ccc12 [Example 43, (E)-N-(4-(8-(4-chloro-6-ethynyl-1,2-dimethyl-1H-benzo[d]imidazol-5-yl)indolizine-3-carbonyl)-2,6-difluorophenyl)-4-(((1r,4r)-4-methoxycyclohexyl)amino)but-2-enamide] | A (A binding rate of 80% or more is rated “A”)
6 | 22 nM | 23 nM | COc1cc2c(nc(C)n2C)c(F)c1-c1cccn2c(C(=O)c3cc(F)c(NC(=O)/C=C/CN[C@H]4CC[C@H](OC)CC4)c(F)c3)ccc12 [Example 44] | A (A binding rate of 80% or more is rated “A”)
7 | 76 nM | 67 nM | CO[C@H]1CC[C@H](NC/C=C/C(=O)Nc2c(F)cc(C(=O)c3c[nH]c4c(-c5cc6nc(C)n(C)c6cc5C(F)(F)F)cccc34)cc2F)CC1 [Example 45, (E)-N-(4-(7-(1,2-dimethyl-6-(trifluoromethyl)-1H-benzo[d]imidazol-5-yl)-1H-indole-3-carbonyl)-2,6-difluorophenyl)-4-(((1r,4r)-4-methoxycyclohexyl)amino)but-2-enamide] | A (A binding rate of 80% or more is rated “A”)
8 | 30 nM | 24 nM | COc1cc2c(nc(C)n2C)c(F)c1-c1cccn2c(C(=O)c3cc(F)c(NC(=O)/C=C/CNC(C)(C)C)c(F)c3)ccc12 [Example 46, (E)-4-(tert-butylamino)-N-(2,6-difluoro-4-(8-(4-fluoro-6-methoxy-1,2-dimethyl-1H-benzo[d]imidazol-5-yl)indolizine-3-carbonyl)phenyl)but-2-enamide] | A (A binding rate of 80% or more is rated “A”)
9 | 57 nM | 120 nM | CO[C@H]1CC[C@H](NC/C=C/C(=O)Nc2c(F)cc(C(=O)c3c(C)nc4c(-c5cc6nc(C)n(C)c6cc5C(F)(F)F)cccn34)cc2F)CC1 [Example 51, (E)-N-(4-(8-(1,2-dimethyl-6-(trifluoromethyl)-1H-benzo[d]imidazol-5-yl)-2-methylimidazo[1,2-a]pyridine-3-carbonyl)-2,6-difluorophenyl)-4-(((1r,4r)-4-methoxycyclohexyl)amino)but-2-enamide] | A (A binding rate of 80% or more is rated “A”)
10 | 75 nM | 190 nM | Cc1nc2c(-c3cc4nc(C)n(C)c4cc3C(F)(F)F)cccn2c1C(=O)c1cc(F)c(NC(=O)/C=C/CNC(C)(C)C)c(F)c1 [Example 52, (E)-4-(tert-butylamino)-N-(4-(8-(1,2-dimethyl-6-(trifluoromethyl)-1H-benzo[d]imidazol-5-yl)-2-methylimidazo[1,2-a]pyridine-3-carbonyl)-2,6-difluorophenyl)but-2-enamide] | A (A binding rate of 80% or more is rated “A”)
11 | 40 nM | 22 nM | COc1c(-c2cccn3c(C(=O)c4cc(F)c(NC(=O)/C=C/CNC(C)(C)C)c(F)c4)ccc23)c(C(F)(F)F)cc2c1nc(C)n2C [Example 53, (E)-4-(tert-butylamino)-N-(2,6-difluoro-4-(8-(4-methoxy-1,2-dimethyl-6-(trifluoromethyl)-1H-benzo[d]imidazol-5-yl)indolizine-3-carbonyl)phenyl)but-2-enamide] | A (A binding rate of 80% or more is rated “A”)

The next lines start with the compound.

Row | SMILES | IC50 [1] | IC50 (MIA PaCa-2 cells) | binding rate [2]
12 | CCc1cc2c(nc(C)n2C)c(Cl)c1-c1cccn2c(C(=O)c3cc(F)c(NC(=O)/C=C/CNC4CCOCC4)c(F)c3)ccc12 [Example 17, (E)-N-(4-(8(4-chloro-6-ethyl-1,2-dimethyl-1H-benzo[d]imidazol-5-yl)indolizine-3-carbonyl)-2,6-difluorophenyl)-4-((tetrahydro-2H-pyran-4-yl)amino)but-2-enamide] | 48 nM | 32 nM | A (A binding rate of 80% or more is rated “A”)
13 | COc1cc(N2CCCC2=O)cc(Cl)c1-c1cccn2c(C(=O)c3cc(F)c(NC(=O)/C=C/CNC(C)(C)C)c(F)c3)ccc12 [Example 21, (E)-4-(tert-butylamino)-N-(4-(8-(2-chloro-6-methoxy-4-(2-oxopyrrolidin-1-yl)phenyl)indolizine-3-carbonyl)-2,6-difluorophenyl)but-2-enamide] | 97 nM | 180 nM | A (A binding rate of 80% or more is rated “A”)
14 | CO[C@H]1CC[C@H](NC/C=C/C(=O)Nc2c(F)cc(C(=O)c3ccc4c(-c5cc6ncn(C)c6cc5O)cccn34)cc2F)CC1 [Example 23, (E)-N-(2,6-difluoro-4-(8-(6-hydroxy-1-methyl-1H-benzo[d]imidazol-5-yl)indolizine-3-carbonyl)phenyl)-4-(((1r,4r)-4-methoxycyclohexyl)amino)but-2-enamide] | 23 nM | 520 nM | A (A binding rate of 80% or more is rated “A”)
15 | Cc1nc2cc(-c3cccn4c(C(=O)c5cc(F)c(NC(=O)/C=C/CNC6CCOCC6)c(F)c5)ccc34)c(C(F)(F)F)cc2n1C [Example 24, (E)-N-(4-(8(1,2-dimethyl-6-(trifluoromethyl)-1H-benzo[d]imidazol-5-yl)indolizine-3-carbonyl)-2,6-difluorophenyl)-4-((tetrahydro-2H-pyran-4-yl)amino)but-2-enamide] | 54 nM | 54 nM | A (A binding rate of 80% or more is rated “A”)
16 | Cc1nc2cc(-c3cccn4c(C(=O)c5cc(F)c(NC(=O)/C=C/CNC(C)(C)C)c(F)c5)ccc34)c(C(F)(F)F)cc2n1C [Example 25, (E)-4-(tert-butylamino)-N-(4-(8-(1,2-dimethyl-6-(trifluoromethyl)-1H-benzo[d]imidazol-5-yl)indolizine-3-carbonyl)-2,6-difluorophenyl)but-2-enamide] | 79 nM | 100 nM | A (A binding rate of 80% or more is rated “A”)
17 | Cc1nc2cc(-c3cccn4c(C(=O)c5cc(F)c(NC(=O)/C=C/CNC6(C)CCOCC6)c(F)c5)ccc34)c(C(F)(F)F)cc2n1C [Example 26] | 62 nM | 82 nM | A (A binding rate of 80% or more is rated “A”)
18 | Cc1cc2c(ncn2C)c(C)c1-c1cccn2c(C(=O)c3cc(F)c(NC(=O)/C=C/CNC(C)(C)C)c(F)c3)ccc12 [Example 29, (E)-4-(tert-butylamino)-N-(2,6-difluoro-4-(8-(1,4,6-trimethyl-1H-benzo[d]imidazol-5-vi)indolizine-3-carbonyl)phenyl)but-2-enamide] | 90 nM | 120 nM | A (A binding rate of 80% or more is rated “A”)
19 | CO[C@H]1CC[C@H](NC/C=C/C(=O)Nc2c(F)cc(C(=O)c3ccc4c(-c5c(Br)cc6c(nc(C)n6C)c5Cl)cccn34)cc2F)CC1 [Example 31, (E)-N-(4-(8(6-bromo-4-chloro-1,2-dimethyl-1H-benzo[d]imidazol-5-yl)indolizine-3-carbonyl)-2,6-difluorophenyl)-4-(((1r,4r)-4-methoxycyclohexyl)amino)but-2-enamide] | 62 nM | 64 nM | A (A binding rate of 80% or more is rated “A”)
